# pIC50: −log10 of the molar value. Where two headings read alike, the source gives them in different places.
# Legend:
# recombinant human HDAC1 = target: T1, recombinant human HDAC1 (Homo sapiens, UniProt Q13547); assay: HDAC1 in-vitro enzymatic assay; format: biochemical
# T1 construct: purchased BPS 50051
# Description: (§1) All of the compounds were dissolved in DMSO. A series of dilutions of the compounds were prepared with 10% DMSO in HDAC assay buffer and 5 μl of the dilution was added to a 50 μl reaction so that the final concentration of DMSO was 1% in all of reactions. The compounds were pre-incubated in duplicate at RT for 30 minutes in a mixture containing HDAC assay buffer, 5 μg BSA, HDAC enzyme and a test compound. After 30 minutes, the enzymatic reactions were initiated by the addition of HDAC substrate to a final concentration of 20 μM or 2 μM. The enzymatic reaction proceeded for 30 minutes at 37° C. After enzymatic reactions, 50 μl of 2×HDAC Developer was added to each well for the HDAC enzymes and the plate was incubated at room temperature for an additional 15 minutes. Fluorescence intensity was measured at an excitation of 360 nm and an emission of 460 nm using a Tecan Infinite M1000 microplate reader.
# (§2) HDAC activity assays were performed in duplicates at each concentration. The fluorescent intensity data were analyzed using the computer software, Graphpad Prism. […] The percent activity in the presence of each compound was calculated according to the following equation: % activity=(F−Fb)/(Ft−Fb), where F=the fluorescent intensity in the presence of the compound. […] The IC50 value was determined by the concentration causing a half-maximal percent activity.
# [1] = Dose escalation toxicity and MTD in mouse; settings: in vivo
# Plasma stability Mouse = format: in vitro ADME
# in vivo = settings: mouse, po
# recombinant human HDAC3 = target: T2, recombinant human HDAC3 (Homo sapiens, UniProt O15379); assay: HDAC3 in-vitro enzymatic assay; format: biochemical
# T2 construct: purchased BPS 50003
# Description: as §1, §2
# E. coli = E. coli mouse infection model; format: in vivo; settings: for translocation of bacteria to liver and spleen: oral, CFU in liver
# Description: FIG. 1: E. coli mouse infection model. CFU measured in tissue: colon, ileum, liver, spleen. Statistical analysis was performed by comparing all conditions to the vehicle-treated group and using one-way ANOVA with Dunnett post-hoc test, *** p<0.001, **** p<0.0001, ns non-significant.
# Compound 1 was administered orally to a mouse model of E. coli infection at 25 mg/kg, 73.5 mk/kg and 50 mg/kg. Compound 1 achieved the study goal of lowering Colony Unit Forming count in colon tissue by a factor of 3 log10 compared to vehicle treated animals.
# • Infecting mice through oral administration of a vancomycin resistant pathogenic strain of E. coli simplified the process of determining the mechanism(s) by which compound 1 exerts its effects on the pathogenic process. […] This is evidenced by the fact that there still are viable vancomycin resistant E. coli present in the colon and ileum at the conclusion of the experiment (FIG. 1). […] It is therefore unlikely that compound 1 is inhibiting E. coli translocation to these organs solely due to its ability to stimulate production of antibacterial peptides. […] That experiment was performed in the presence of cyclophosphamide, which is known to cause febrile neutropenia due to translocation of bacteria to vital organs. […] First is the ability of the compound 1 to attenuate the growth of bacteria and secondly is its ability to inhibit the bacterial translocation.
# Plasma stability Rat = format: in vitro ADME
# recombinant human HDAC9 = target: T3, recombinant human HDAC9 (Homo sapiens, UniProt Q9UKV0); assay: HDAC9 in-vitro enzymatic assay; format: biochemical
# T3 construct: purchased BPS 50009
# Description: as §1, §2
# recombinant human HDAC5 = target: T4, recombinant human HDAC5 (Homo sapiens, UniProt Q9UQL6); assay: HDAC5 in-vitro enzymatic assay; format: biochemical
# T4 construct: purchased BPS 50005
# Description: as §1, §2
# [2] = Rat pharmacokinetics (IV, PO); format: in vivo
# [3] = Mouse ileum C-max after single PO dose; format: in vivo
# T4 sequence (Q9UQL6 whole entry): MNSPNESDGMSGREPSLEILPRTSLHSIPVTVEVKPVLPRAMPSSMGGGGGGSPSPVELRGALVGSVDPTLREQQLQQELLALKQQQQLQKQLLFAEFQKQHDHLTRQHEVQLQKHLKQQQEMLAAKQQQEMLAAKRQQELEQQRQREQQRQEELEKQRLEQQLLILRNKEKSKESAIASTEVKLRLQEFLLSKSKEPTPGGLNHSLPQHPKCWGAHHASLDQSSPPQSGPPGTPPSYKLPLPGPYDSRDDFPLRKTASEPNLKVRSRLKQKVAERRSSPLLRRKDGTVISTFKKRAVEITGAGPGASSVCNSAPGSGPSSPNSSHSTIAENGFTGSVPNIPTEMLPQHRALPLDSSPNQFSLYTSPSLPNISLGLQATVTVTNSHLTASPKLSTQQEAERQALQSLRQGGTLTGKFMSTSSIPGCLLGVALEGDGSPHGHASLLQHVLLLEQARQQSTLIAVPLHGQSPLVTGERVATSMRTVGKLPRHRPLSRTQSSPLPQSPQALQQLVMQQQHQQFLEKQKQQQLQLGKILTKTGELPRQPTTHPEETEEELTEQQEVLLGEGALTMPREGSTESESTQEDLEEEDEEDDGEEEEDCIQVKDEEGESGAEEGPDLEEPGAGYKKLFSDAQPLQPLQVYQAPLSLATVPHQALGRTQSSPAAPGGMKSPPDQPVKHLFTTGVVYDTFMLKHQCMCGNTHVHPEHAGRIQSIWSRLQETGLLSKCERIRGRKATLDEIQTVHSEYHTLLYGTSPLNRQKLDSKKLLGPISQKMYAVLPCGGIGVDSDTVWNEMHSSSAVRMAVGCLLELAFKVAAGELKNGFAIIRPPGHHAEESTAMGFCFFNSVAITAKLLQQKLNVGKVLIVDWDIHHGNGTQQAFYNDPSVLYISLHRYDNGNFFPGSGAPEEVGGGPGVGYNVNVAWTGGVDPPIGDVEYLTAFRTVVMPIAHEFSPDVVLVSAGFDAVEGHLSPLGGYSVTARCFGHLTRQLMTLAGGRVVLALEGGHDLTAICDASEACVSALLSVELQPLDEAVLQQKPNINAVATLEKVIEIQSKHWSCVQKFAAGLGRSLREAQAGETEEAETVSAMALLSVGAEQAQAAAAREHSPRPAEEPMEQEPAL
# T2 sequence (O15379 whole entry): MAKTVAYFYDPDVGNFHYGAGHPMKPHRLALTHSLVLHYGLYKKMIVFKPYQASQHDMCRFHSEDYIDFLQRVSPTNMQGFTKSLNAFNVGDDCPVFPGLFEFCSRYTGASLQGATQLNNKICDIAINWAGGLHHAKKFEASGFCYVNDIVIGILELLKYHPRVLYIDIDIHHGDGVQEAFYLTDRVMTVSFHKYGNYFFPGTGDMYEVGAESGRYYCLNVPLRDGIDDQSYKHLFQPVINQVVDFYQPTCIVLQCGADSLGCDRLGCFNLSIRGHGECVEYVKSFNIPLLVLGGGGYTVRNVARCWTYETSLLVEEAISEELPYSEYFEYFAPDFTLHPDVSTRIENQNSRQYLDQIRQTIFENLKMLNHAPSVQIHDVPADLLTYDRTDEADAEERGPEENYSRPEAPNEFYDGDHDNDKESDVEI
# T2 sequence (Q9Y618 395-489 partner limits assumed): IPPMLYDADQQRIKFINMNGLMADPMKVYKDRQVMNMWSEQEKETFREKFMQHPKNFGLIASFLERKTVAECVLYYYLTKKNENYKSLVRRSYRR
# T1 sequence (Q13547 whole entry): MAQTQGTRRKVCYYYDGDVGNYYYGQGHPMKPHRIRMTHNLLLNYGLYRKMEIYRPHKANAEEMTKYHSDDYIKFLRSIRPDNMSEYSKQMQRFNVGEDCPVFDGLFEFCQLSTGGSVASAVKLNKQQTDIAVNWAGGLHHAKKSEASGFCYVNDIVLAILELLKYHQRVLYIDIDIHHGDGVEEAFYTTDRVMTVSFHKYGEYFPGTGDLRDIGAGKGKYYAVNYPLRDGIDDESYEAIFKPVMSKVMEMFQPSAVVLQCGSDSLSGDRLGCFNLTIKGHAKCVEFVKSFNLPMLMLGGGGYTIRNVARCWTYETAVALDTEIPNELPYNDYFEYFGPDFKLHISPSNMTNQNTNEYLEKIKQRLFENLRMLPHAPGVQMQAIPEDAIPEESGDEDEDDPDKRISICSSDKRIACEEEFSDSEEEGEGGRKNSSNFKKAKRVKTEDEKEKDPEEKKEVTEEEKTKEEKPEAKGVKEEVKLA
# T3 sequence (Q9UKV0 whole entry): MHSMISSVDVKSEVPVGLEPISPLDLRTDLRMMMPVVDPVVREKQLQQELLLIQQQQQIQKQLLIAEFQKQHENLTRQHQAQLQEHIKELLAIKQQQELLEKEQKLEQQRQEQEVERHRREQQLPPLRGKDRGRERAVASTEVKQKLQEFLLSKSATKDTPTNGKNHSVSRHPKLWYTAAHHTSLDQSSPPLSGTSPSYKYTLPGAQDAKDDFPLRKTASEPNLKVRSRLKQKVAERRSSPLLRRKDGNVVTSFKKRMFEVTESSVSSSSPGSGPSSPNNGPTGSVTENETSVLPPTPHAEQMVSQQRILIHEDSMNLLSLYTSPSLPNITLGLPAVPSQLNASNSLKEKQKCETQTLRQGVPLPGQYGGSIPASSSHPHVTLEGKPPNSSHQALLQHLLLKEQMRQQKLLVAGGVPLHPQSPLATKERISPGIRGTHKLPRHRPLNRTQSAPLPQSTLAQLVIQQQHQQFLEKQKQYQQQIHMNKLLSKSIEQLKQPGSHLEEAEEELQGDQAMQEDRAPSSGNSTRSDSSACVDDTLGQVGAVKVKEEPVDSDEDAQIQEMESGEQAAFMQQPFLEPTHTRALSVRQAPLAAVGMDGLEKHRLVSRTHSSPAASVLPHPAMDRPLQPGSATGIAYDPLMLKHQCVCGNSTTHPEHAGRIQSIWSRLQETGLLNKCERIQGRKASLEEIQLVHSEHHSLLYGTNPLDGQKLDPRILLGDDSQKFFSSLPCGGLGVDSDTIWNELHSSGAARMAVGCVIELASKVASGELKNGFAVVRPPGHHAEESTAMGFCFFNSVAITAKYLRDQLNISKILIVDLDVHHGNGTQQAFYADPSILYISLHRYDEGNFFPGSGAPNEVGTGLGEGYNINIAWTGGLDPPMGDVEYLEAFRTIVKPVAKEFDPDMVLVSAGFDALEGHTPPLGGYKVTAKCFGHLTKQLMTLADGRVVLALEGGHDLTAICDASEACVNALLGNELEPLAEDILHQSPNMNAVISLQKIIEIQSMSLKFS
smiles,measurement,setting,value
"C#CCOCC(=O)Nc1ccc(C(=O)Nc2ccccc2N)cc1 [Compound 1, N-(2-aminophenyl)-4-{2-[(prop-2-yn-1-yl)oxy]acetamido}benzamide]",pIC50,recombinant human HDAC1,> 6.00
same,inhibition at 1 µM,"recombinant human HDAC1; @ 1 μM, read-out: Inhib. HDAC1",75%
same,Dose Esc. Tox mouse iv,[1]; iv,100 mg/kg
same,Dose Esc. Tox mouse PO,[1]; po,50 mg/kg
same,Plasma stability Mouse,Plasma stability Mouse,Low
same,MTD at 7 days,in vivo; 7 Days PO once daily MTD - mouse,> 50 mg/kg
same,MTD at 7 days,in vivo; 7 Days PO twice daily MTD - mouse,50 mg/kg
same,pIC50,recombinant human HDAC3,≥ 6.00
same,inhibition at 1 µM,"recombinant human HDAC3; @ 1 μM, read-out: Inhib. HDAC3",61%
same,dose dependence of attenuation of E. coli growth in the colon and ileum,E. coli; FIG. 1,shows dose dependence
same,dose dependence of inhibition of vancomycin resistant E. coli translocation to the liver and spleen,E. coli; FIG. 1,not compound 1 dose dependent
same,lowering Colony Unit Forming count in colon tissue compared to vehicle treated animals,"E. coli; administered orally at 25 mg/kg, 73.5 mk/kg and 50 mg/kg",3 log10
same,E. coli burden in the intestines reduced compared to control,"E. coli; colon and ileum, conclusion of the experiment",~3 logs
same,translocation of bacteria to liver and spleen,E. coli,completely knocking out translocation
same,translocation of bacteria to liver and spleen,E. coli; listed as compound 1,totally inhibiting its translocation
same,Plasma stability Rat,Plasma stability Rat,High
same,pIC50,recombinant human HDAC9,< 3.70
same,Inhib. HDAC9,recombinant human HDAC9; @ 200 μM,No Inhib. @ 200 μM
same,pIC50,recombinant human HDAC5,< 3.70
same,Inhib. HDAC5,recombinant human HDAC5; @ 200 μM,No Inhib. @ 200 μM
same,C_max IV - rat,[2]; IV,177 µM
same,V-d IV - rat,[2]; IV,0.565 L/kg
same,C_max PO - rat,[2]; PO,3.3 µM
same,half-life,"[2]; in vivo, PO, read-out: Elimination T½ (min) PO - rat",34 min
same,half-life,"[2]; in vivo, intravenous, PIV, read-out: Elimination T½ (min) PIV - rat",66 min
same,bioavailability,"[2]; in vivo, oral",1%
same,PO single 5 mg/kg mouse - Ileum C-max,[3]; PO single 5 mg/kg,0.9 µM
same,PO single 15 mg/kg mouse - Ileum C-max,[3]; PO single 15 mg/kg,2.0 µM
same,PO single 50 mg/kg mouse - Ileum C-max,[3]; PO single 50 mg/kg,7.1 µM

# Source: patent US20250381157A1, “ANTIMICROBIAL COMPOUNDS” (priority 2022, published 2025)
